Positions count from the first letter of the chain named.
Tests used:
6XHIS-ARV1-N98 K67A = target: T1, 6XHIS-ARV1-N98 K67A (Homo sapiens, UniProt Q9H2C2, K67A); assay: Lipid overlay far western, site-directed mutant; format: binding; conditions: compared to the ARV1-N98 protein
T1 construct: Expressing amino-terminal 98 amino acids of ARV1; made in house; host or cells: E. coli BL21 (pET-28a(+))
T1 sequence (Q9H2C2 1-98 K67A): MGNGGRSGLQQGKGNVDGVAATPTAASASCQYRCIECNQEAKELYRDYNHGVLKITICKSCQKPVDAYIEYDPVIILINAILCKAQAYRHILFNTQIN
Experimental: (§1) Lipid overlays were blocked in TBST-BSA (100 mM Tris–HCl buffer, pH 7.5, 150 mM NaCl, 0.5% Tween 20, 3% bovine serum albumin) for 1 h and subsequently washed eight separate times with TBST for 2 min each. Overlays were incubated with 0.5 μg/ml GST-tagged or 6XHIS-tagged proteins in 3% TBST-BSA buffer containing 0.1% Triton X-100, for 1 h at room temperature and washed as above. Overlays were incubated with either anti-GST or anti-6XHIS monoclonal antibodies at a 1:1000 dilution in TBST-BSA for 1 h at room temperature followed by eight washes in TBST. Overlays were visualized using Immobilon Western Chemiluminescent horseradish peroxidase substrate and protein–lipid interaction was detected using a GE ImageQuant LAS 3000 imager.

6XHIS-ARV1-N98 K84A = target: T2, 6XHIS-ARV1-N98 K84A (Homo sapiens, UniProt Q9H2C2, K84A); assay: Lipid overlay far western, site-directed mutant; format: binding; conditions: compared to the ARV1-N98 protein
T2 construct: Expressing amino-terminal 98 amino acids of ARV1; made in house; host or cells: E. coli BL21 (pET-28a(+))
T2 sequence (Q9H2C2 1-98 K84A): T1 sequence (Q9H2C2 1-98 K67A) with A67K, K84A
Experimental: as §1

6XHIS-ARV1-N98 C34/C37A = target: T3, 6XHIS-ARV1-N98 C34/C37A (Homo sapiens, UniProt Q9H2C2, C34A/C37A); assay: Lipid overlay far western, site-directed mutant; format: binding; conditions: compared to the ARV1-N98 protein
T3 construct: Expressing amino-terminal 98 amino acids of ARV1; made in house; host or cells: E. coli BL21 (pET-28a(+))
T3 sequence (Q9H2C2 1-98 C34A/C37A): T1 sequence (Q9H2C2 1-98 K67A) with C34A, C37A, A67K
Experimental: as §1

GST-Annexin A2 = GST-Annexin A2 (Homo sapiens, UniProt P07355); assay: Lipid overlay far western (positive control protein); format: binding
GST-Annexin A2, sequence (P07355 whole entry): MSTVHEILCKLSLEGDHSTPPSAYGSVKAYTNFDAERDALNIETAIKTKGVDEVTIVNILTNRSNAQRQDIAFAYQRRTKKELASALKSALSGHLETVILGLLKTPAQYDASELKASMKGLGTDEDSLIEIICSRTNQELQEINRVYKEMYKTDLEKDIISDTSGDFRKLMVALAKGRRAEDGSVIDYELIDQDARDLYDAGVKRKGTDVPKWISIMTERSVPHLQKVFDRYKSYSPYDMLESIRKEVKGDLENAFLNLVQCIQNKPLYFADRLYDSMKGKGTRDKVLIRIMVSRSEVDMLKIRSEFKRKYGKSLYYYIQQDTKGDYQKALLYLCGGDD
Experimental: as §1

[1] = target: T4, GST-ARV1 (full-length ARV1) (Homo sapiens, UniProt Q9H2C2); assay: Lipid overlay far western; format: binding
T4 construct: Expresses full length ARV1; made in house; host or cells: E. coli BL21 (pGEX-4T1)
T4 sequence (Q9H2C2 1-271): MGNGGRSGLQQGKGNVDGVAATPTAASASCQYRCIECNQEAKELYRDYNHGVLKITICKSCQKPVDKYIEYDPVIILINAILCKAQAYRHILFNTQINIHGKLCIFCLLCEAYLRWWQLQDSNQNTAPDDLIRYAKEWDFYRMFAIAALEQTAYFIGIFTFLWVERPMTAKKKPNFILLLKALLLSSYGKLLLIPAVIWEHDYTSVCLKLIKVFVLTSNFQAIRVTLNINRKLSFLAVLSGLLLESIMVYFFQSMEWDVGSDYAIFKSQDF
Experimental: as §1

GST-ARV1-N98 = target: T5, GST-ARV1-N98 (Homo sapiens, UniProt Q9H2C2); assay: Lipid overlay far western; format: binding
T5 construct: Expresses amino-terminal 98 amino acids of ARV1; made in house; host or cells: E. coli BL21 (pGEX-4T1)
T5 sequence (Q9H2C2 1-98): T1 sequence (Q9H2C2 1-98 K67A) with A67K
Experimental: as §1

GST-ARV1-N50 = target: T6, GST-ARV1-N50 (Homo sapiens, UniProt Q9H2C2); assay: Lipid overlay far western, truncation; format: binding; conditions: compared to ARV1-N98 / ARV1-N70
T6 construct: Expresses amino-terminal 50 amino acids of ARV1; made in house; host or cells: E. coli BL21 (pGEX-4T1)
T6 sequence (Q9H2C2 1-50): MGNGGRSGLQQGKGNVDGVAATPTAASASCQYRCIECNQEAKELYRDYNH
Experimental: as §1

GST-ARV1-N70 = target: T7, GST-ARV1-N70 (Homo sapiens, UniProt Q9H2C2); assay: Lipid overlay far western, truncation; format: binding; conditions: compared to ARV1-N98
T7 construct: Expresses amino-terminal 70 amino acids of ARV1; made in house; host or cells: E. coli BL21 (pGEX-4T1)
T7 sequence (Q9H2C2 1-70): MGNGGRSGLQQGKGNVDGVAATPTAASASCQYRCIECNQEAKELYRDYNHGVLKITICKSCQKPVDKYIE
Experimental: as §1

[2] = target: T8, GST-ARV1-N98 (N-terminal 98 amino acids, AHD) (Homo sapiens, UniProt Q9H2C2); assay: Protein-lipid liposome binding assay (ultracentrifugation, Western blot)
T8 construct: Expresses amino-terminal 98 amino acids of ARV1; made in house; host or cells: E. coli BL21 (pGEX-4T1)
T8 sequence (Q9H2C2 1-98): T1 sequence (Q9H2C2 1-98 K67A) with A67K
Experimental: (§2) Lyophilized lipids were reconstituted in chloroform at 10 mg/ml and stored in glass tubes with Teflon tops at −20 °C until use. One milliliter of 10 mg/ml stock was dried under a stream of nitrogen in a glass tube until a lipid cake/film was formed. The lipid cake was then rehydrated in BLT rehydration buffer (5 mM Tris/HCl, pH 7.4, containing 150 mM NaCl) to a concentration of 1 mg/ml. Lipid suspensions were subjected to three freeze/thaw cycles using a dry ice ethanol/[…] water bath to encapsulate the buffer and improve liposome formation. The suspension and lipid extruder were equilibrated to temperature for 10 min and liposomes were extruded using […] polycarbonate membranes (Avestin). Liposomes were made by mixing stock lipid PL (1 mg/ml) with PC (10 mg/ml).
(§3) Cholesterol composition liposomes were rehydrated with cholesterol rehydration buffer (10 mM Hepes, pH 7.4, containing 150 mM KCl).
(§4) Liposomes were serial diluted in floatation buffer (100 mM NaCl, 2 mM EDTA, pH 5.5) to a final concentration of 0.1 mg/ml. Nine hundred microliters of liposome solution was placed in clear ultracentrifuge tubes and mixed with 100 μl of 0.01 μg/ml of protein. The liposome/protein solution was incubated at room temperature for 1 h with occasional shaking. An initial 100 μl of liposome/protein solution (liposomes) was removed and the remaining 900 μl was centrifuged at 50,000g for 20 min at 4 °C. The pellet was resuspended in 800 μl of fresh floatation buffer, centrifuged as above, and 800 μl of supernatant was removed (wash 1). This was repeated a second time and again 800 μl of supernatant was removed (wash 2). The final pellet was resuspended in 100 μl of floatation buffer plus SDS treatment buffer (pellet). Thirty microliters of each fraction was run on a 15% SDS-PAGE gel and probed with an anti-GST monoclonal antibody at a 1:1500 dilution.

[3] = target: T4, GST-ARV1 (full-length ARV1); assay: as above
Experimental: as §2, §3, §4

[4] = lipid-embedded membrane strips, incl. sphingolipid strip
[5] = PIP lipid membrane strip, 100pmol-1.56pmol per spot
[6] = liposomes containing 10% and 20% cholesterol
[7] = liposomes containing 30 to 50% cholesterol

With `CCCCCC(=O)O[C@H](COC(=O)CCCCCNC(=O)CCCC[C@@H]1SC[C@@H]2NC(=O)N[C@@H]21)COP(=O)(O)O[C@@H]1[C@H](O)[C@H](O)[C@@H](OP(=O)(O)O)[C@H](OP(=O)(O)O)[C@H]1O` [PI(4,5)P2, reference compound] the “change of lipid-protein interaction” value (6XHIS-ARV1-N98 K67A) was “increased interactions”, the “change of lipid-protein interaction” value (6XHIS-ARV1-N98 K84A) was “increased interactions” and the “change of lipid-protein interaction” value (6XHIS-ARV1-N98 C34/C37A) was “enhanced interactions”. The lipid-protein interaction (GST-Annexin A2; [4]) was “interacted”.
For `CCCCCC(=O)O[C@H](COC(=O)CCCCCNC(=O)CCCC[C@@H]1SC[C@@H]2NC(=O)N[C@@H]21)COP(=O)(O)O[C@H]1[C@H](O)[C@@H](OP(=O)(O)O)[C@H](O)[C@@H](O)[C@H]1O` [PI(5)P, reference compound], the lipid-protein interaction (GST-Annexin A2; [5]) was “strongest interactions”, the lipid-protein interaction [1, 5] was “interacted” and the lipid-protein interaction (GST-ARV1-N98; [5]) was “interacted”. The “change of lipid-protein interaction” value (GST-ARV1-N50) was “eliminated” and the “change of lipid-protein interaction” value (GST-ARV1-N70) was “reduced interactions”.
With `CC(C)CCC[C@@H](C)[C@H]1CC[C@H]2[C@@H]3CC=C4C[C@@H](O)CC[C@]4(C)[C@H]3CC[C@]12C` [cholesterol] the “binding to PC:Chol liposomes” value [2, 6] was “bound”, the “binding to PC:Chol liposomes” value [2, 7] was “neither ARV1 nor ARV1-N98 associated” and the “binding to PC:Chol liposomes” value [3, 6] was “bound”. For the same compound, the “binding to PC:Chol liposomes” value [3, 7] was “neither ARV1 nor ARV1-N98 associated”, the lipid-protein interaction [1, 4] was “not seen” and the lipid-protein interaction (GST-ARV1-N98; [4]) was “not seen”.
With `CCCCCCCC/C=C\CCCCCCCC(=O)OC[C@@H](O)COP(=O)(O)O` [lyso-phosphatidic acid] the lipid-protein interaction [1, 4] was “not seen” and the lipid-protein interaction (GST-ARV1-N98; [4]) was “not seen”.
For `CCCCCCCCCCCCCC[C@@H](O)[C@@H](O)[C@@H](N)CO` [phytosphingosine], the lipid-protein interaction [1, 4] was “not” and the lipid-protein interaction (GST-ARV1-N98; [4]) was “not”.
With `CCCCCC(=O)O[C@H](COC(=O)CCCCCNC(=O)CCCC[C@@H]1SC[C@@H]2NC(=O)N[C@@H]21)COP(=O)(O)O[C@@H]1[C@H](O)[C@H](OP(=O)(O)O)[C@@H](O)[C@H](O)[C@H]1O` [reference compound] the lipid-protein interaction (GST-Annexin A2; [5]) was “strongest interactions”, the lipid-protein interaction [1, 5] was “interacted” and the lipid-protein interaction (GST-ARV1-N98; [5]) was “interacted”. For the same compound, the “change of lipid-protein interaction” value (GST-ARV1-N50) was “enhanced” and the “change of lipid-protein interaction” value (GST-ARV1-N70) was “reduced interactions”.
For `CCCCCCCCCCCCC/C=C/[C@@H](O)[C@@H](N)COP(=O)(O)O` [sphingosine-1-phosphate], the lipid-protein interaction [1, 4] was “not” and the lipid-protein interaction (GST-ARV1-N98; [4]) was “not”.
`CCCCCCCCCCCCC/C=C/[C@@H](O)[C@@H](N)CO` [sphingosine] was tested, and the lipid-protein interaction [1, 4] was “not” and the lipid-protein interaction (GST-ARV1-N98; [4]) was “not”.
In the case of PI(3,4,5)P3, the “change of lipid-protein interaction” value (6XHIS-ARV1-N98 K67A) is reported as “increased interactions”, the “change of lipid-protein interaction” value (6XHIS-ARV1-N98 K84A) is reported as “increased interactions” and the lipid-protein interaction (GST-Annexin A2; [4]) is reported as “interacted”.
With ceramide the lipid-protein interaction [1, 4] was “not” and the lipid-protein interaction (GST-ARV1-N98; [4]) was “not”.
In the case of lyso-phosphatidylcholine, the lipid-protein interaction [1, 4] is reported as “not seen” and the lipid-protein interaction (GST-ARV1-N98; [4]) is reported as “not seen”.

Reference: publication PMC11952846, “The sterol-regulating human ARV1 binds cholesterol and phospholipids through its conserved ARV1 homology domain” (The Journal of Biological Chemistry, 2025)
